# In ChEMBL document CHEMBL1201862, “PubChem BioAssay data set” (2004):
#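 48-hour exposure; five concentrations; linearly interpolated endpoints. GI50 is the concentration that inhibits growth by half.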 Active and inactive are the calls of the source. Rule as the data show it: active = GI50 up to about 1.1 µM and inactive = higher.
# Columns and labels:
# Experiment in all cases: NCI tumour cell line growth inhibition, 48 h
# CAKI-1 = test system: CAKI-1
# HT-29 = test system: HT-29
# U-251 = test system: U-251
# HL-60 = test system: HL-60
# CCRF-CEM = test system: CCRF-CEM
# NCI-H522 = test system: NCI-H522
# RPMI-8226 = test system: RPMI-8226
# IGROV-1 = test system: IGROV-1
# SNB-75 = test system: SNB-75
# DMS-114 = test system: DMS-114
# Malme-3M = test system: Malme-3M
# SK-MEL-2 = test system: SK-MEL-2
# SR = test system: SR
# XF498 = test system: XF498
# HCT-116 = test system: HCT-116
# UO-31 = test system: UO-31
# NCI-H23 = test system: NCI-H23
# NCI-H460 = test system: NCI-H460
# KM-20L2 = test system: KM-20L2
# K562 = test system: K562
# SF-268 = test system: SF-268
# DLD-1 = test system: DLD-1
# ACHN = test system: ACHN
# SF-539 = test system: SF-539
# SK-MEL-28 = test system: SK-MEL-28
# OVCAR-5 = test system: OVCAR-5
# HOP-62 = test system: HOP-62
# RXF 631 = test system: RXF 631
# SNB-19 = test system: SNB-19
# LOX IMVI = test system: LOX IMVI
# SK-OV-3 = test system: SK-OV-3
# COLO 205 = test system: COLO 205
# MOLT-4 = test system: MOLT-4
# A549 = test system: A549
# LXFL 529 = test system: LXFL 529
# UACC-257 = test system: UACC-257
# SW-620 = test system: SW-620
# HOP-92 = test system: HOP-92
# OVCAR-3 = test system: OVCAR-3
# M14 = test system: M14
# M19-MEL = test system: M19-MEL
# EKVX = test system: EKVX
# HCT-15 = test system: HCT-15
# TK-10 = test system: TK-10
# OVCAR-8 = test system: OVCAR-8
# KM12 = test system: KM12
# SNB-78 = test system: SNB-78
# SF-295 = test system: SF-295
# 786-0 = test system: 786-0
# OVCAR-4 = test system: OVCAR-4
# UACC-62 = test system: UACC-62
# HCC 2998 = test system: HCC 2998
# SN12C = test system: SN12C
# SK-MEL-5 = test system: SK-MEL-5
# A498 = test system: A498
# RXF 393 = test system: RXF 393
# DMS-273 = test system: DMS-273
# NCI-H226 = test system: NCI-H226
structure (smiles),measurement,setting,value
C#Cc1c(C)c(/C=C/C(C)=C/C=C/C(C)=C/C(=O)OC)n(C)c1C,GI50,CAKI-1,> 100 µM (inactive)
same,GI50,HT-29,> 100 µM (inactive)
same,GI50,U-251,> 100 µM (inactive)
same,GI50,HL-60,> 100 µM (inactive)
same,GI50,CCRF-CEM,> 100 µM (inactive)
same,GI50,NCI-H522,> 100 µM (inactive)
same,GI50,RPMI-8226,> 100 µM (inactive)
same,GI50,IGROV-1,> 100 µM (inactive)
same,GI50,SNB-75,44.5 µM (inactive)
same,GI50,DMS-114,> 100 µM (inactive)
same,GI50,Malme-3M,> 100 µM (inactive)
same,GI50,SK-MEL-2,> 100 µM (inactive)
same,GI50,SR,> 100 µM (inactive)
same,GI50,XF498,> 100 µM (inactive)
same,GI50,HCT-116,> 100 µM (inactive)
same,GI50,UO-31,> 100 µM (inactive)
same,GI50,NCI-H23,> 100 µM (inactive)
same,GI50,NCI-H460,> 100 µM (inactive)
same,GI50,KM-20L2,> 100 µM (inactive)
same,GI50,K562,> 100 µM (inactive)
same,GI50,SF-268,> 100 µM (inactive)
same,GI50,DLD-1,> 100 µM (inactive)
same,GI50,ACHN,> 100 µM (inactive)
same,GI50,SF-539,> 100 µM (inactive)
same,GI50,SK-MEL-28,> 100 µM (inactive)
same,GI50,OVCAR-5,> 100 µM (inactive)
same,GI50,HOP-62,> 100 µM (inactive)
same,GI50,RXF 631,> 100 µM (inactive)
same,GI50,SNB-19,> 100 µM (inactive)
same,GI50,LOX IMVI,> 100 µM (inactive)
same,GI50,SK-OV-3,0.428 µM (active)
same,GI50,COLO 205,> 100 µM (inactive)
same,GI50,MOLT-4,> 100 µM (inactive)
same,GI50,A549,> 100 µM (inactive)
same,GI50,LXFL 529,> 100 µM (inactive)
same,GI50,UACC-257,> 100 µM (inactive)
same,GI50,SW-620,> 100 µM (inactive)
same,GI50,HOP-92,> 100 µM (inactive)
same,GI50,OVCAR-3,> 100 µM (inactive)
same,GI50,M14,> 100 µM (inactive)
same,GI50,M19-MEL,> 100 µM (inactive)
same,GI50,EKVX,> 100 µM (inactive)
same,GI50,HCT-15,> 100 µM
same,GI50,TK-10,> 100 µM (inactive)
same,GI50,OVCAR-8,> 100 µM (inactive)
same,GI50,KM12,> 100 µM (inactive)
same,GI50,SNB-78,> 100 µM (inactive)
same,GI50,SF-295,> 100 µM (inactive)
same,GI50,786-0,> 100 µM (inactive)
same,GI50,OVCAR-4,> 100 µM (inactive)
same,GI50,UACC-62,62.5 µM (inactive)
COc1ccc2oc(C(=O)O)c3c2c1CCC3CCC(=O)O (stereo not drawn),GI50,HT-29,> 100 µM (inactive)
same,GI50,U-251,> 100 µM (inactive)
same,GI50,HL-60,> 100 µM (inactive)
same,GI50,CCRF-CEM,> 100 µM (inactive)
same,GI50,NCI-H522,> 100 µM (inactive)
same,GI50,RPMI-8226,> 100 µM (inactive)
same,GI50,IGROV-1,> 100 µM (inactive)
same,GI50,SNB-75,> 100 µM (inactive)
same,GI50,DMS-114,> 100 µM (inactive)
same,GI50,Malme-3M,> 100 µM (inactive)
same,GI50,HCC 2998,> 100 µM (inactive)
same,GI50,SK-MEL-2,> 100 µM (inactive)
same,GI50,SR,> 100 µM (inactive)
same,GI50,SN12C,> 100 µM (inactive)
same,GI50,XF498,> 100 µM (inactive)
same,GI50,HCT-116,> 100 µM (inactive)
same,GI50,UO-31,> 100 µM (inactive)
same,GI50,NCI-H23,> 100 µM (inactive)
same,GI50,NCI-H460,> 100 µM (inactive)
same,GI50,K562,> 100 µM (inactive)
same,GI50,SF-268,> 100 µM (inactive)
same,GI50,DLD-1,> 100 µM (inactive)
same,GI50,ACHN,> 100 µM (inactive)
same,GI50,SF-539,> 100 µM (inactive)
same,GI50,SK-MEL-28,> 100 µM (inactive)
same,GI50,SK-MEL-5,> 100 µM (inactive)
same,GI50,OVCAR-5,> 100 µM (inactive)
same,GI50,RXF 631,> 100 µM (inactive)
same,GI50,A498,> 100 µM (inactive)
same,GI50,SNB-19,> 100 µM (inactive)
same,GI50,LOX IMVI,> 100 µM (inactive)
same,GI50,SK-OV-3,> 100 µM (inactive)
same,GI50,COLO 205,> 100 µM (inactive)
same,GI50,MOLT-4,> 100 µM (inactive)
same,GI50,A549,> 100 µM (inactive)
same,GI50,LXFL 529,> 100 µM (inactive)
same,GI50,UACC-257,> 100 µM (inactive)
same,GI50,SW-620,> 100 µM (inactive)
same,GI50,HOP-92,> 100 µM (inactive)
same,GI50,RXF 393,> 100 µM (inactive)
same,GI50,DMS-273,> 100 µM (inactive)
same,GI50,M19-MEL,> 100 µM (inactive)
same,GI50,EKVX,> 100 µM (inactive)
same,GI50,TK-10,> 100 µM (inactive)
same,GI50,OVCAR-8,> 100 µM (inactive)
same,GI50,KM12,> 100 µM (inactive)
same,GI50,SNB-78,> 100 µM (inactive)
same,GI50,SF-295,> 100 µM (inactive)
same,GI50,786-0,> 100 µM (inactive)
same,GI50,OVCAR-4,> 100 µM (inactive)
same,GI50,UACC-62,> 100 µM (inactive)
CCOC(=O)C1=C(C)N(NC(N)=O)C(C)(O)C12CCOC2=O (stereo not drawn),GI50,CAKI-1,> 100 µM (inactive)
same,GI50,HT-29,> 100 µM (inactive)
same,GI50,U-251,> 100 µM (inactive)
same,GI50,HL-60,> 100 µM (inactive)
same,GI50,NCI-H522,> 100 µM (inactive)
same,GI50,RPMI-8226,> 100 µM (inactive)
same,GI50,IGROV-1,> 100 µM (inactive)
same,GI50,SNB-75,> 100 µM (inactive)
same,GI50,Malme-3M,> 100 µM (inactive)
same,GI50,HCC 2998,> 100 µM (inactive)
same,GI50,SK-MEL-2,> 100 µM (inactive)
same,GI50,SR,> 100 µM (inactive)
same,GI50,SN12C,> 100 µM (inactive)
same,GI50,XF498,> 100 µM (inactive)
same,GI50,HCT-116,> 100 µM (inactive)
same,GI50,UO-31,> 100 µM (inactive)
same,GI50,NCI-H460,> 100 µM (inactive)
same,GI50,KM-20L2,> 100 µM (inactive)
same,GI50,K562,> 100 µM (inactive)
same,GI50,SF-268,> 100 µM (inactive)
same,GI50,DLD-1,> 100 µM (inactive)
same,GI50,ACHN,> 100 µM (inactive)
same,GI50,SF-539,> 100 µM (inactive)
same,GI50,SK-MEL-28,> 100 µM (inactive)
same,GI50,SK-MEL-5,> 100 µM (inactive)
same,GI50,OVCAR-5,> 100 µM (inactive)
same,GI50,HOP-62,> 100 µM (inactive)
same,GI50,RXF 631,> 100 µM (inactive)
same,GI50,A498,> 100 µM (inactive)
same,GI50,SNB-19,> 100 µM (inactive)
same,GI50,LOX IMVI,> 100 µM (inactive)
same,GI50,SK-OV-3,> 100 µM (inactive)
same,GI50,MOLT-4,> 100 µM (inactive)
same,GI50,A549,> 100 µM (inactive)
same,GI50,LXFL 529,> 100 µM (inactive)
same,GI50,UACC-257,> 100 µM (inactive)
same,GI50,SW-620,> 100 µM (inactive)
same,GI50,OVCAR-3,> 100 µM (inactive)
same,GI50,DMS-273,> 100 µM (inactive)
same,GI50,M14,> 100 µM (inactive)
same,GI50,M19-MEL,> 100 µM (inactive)
same,GI50,EKVX,> 100 µM (inactive)
same,GI50,NCI-H226,> 100 µM (inactive)
same,GI50,HCT-15,> 100 µM
same,GI50,OVCAR-8,> 100 µM (inactive)
same,GI50,KM12,> 100 µM (inactive)
same,GI50,SNB-78,1.97 µM (inactive)
same,GI50,SF-295,> 100 µM (inactive)
same,GI50,786-0,> 100 µM (inactive)
same,GI50,OVCAR-4,> 100 µM (inactive)
same,GI50,UACC-62,> 100 µM (inactive)
